Test results taken from patent US20180000085A1, “USE OF PICOLINAMIDE COMPOUNDS WITH FUNGICIDAL ACTIVITY” (DOW AGROSCIENCES LLC, priority 2014, published 2018).

Experiments:
Zymoseptoria tritici = experiment: Leaf blotch of wheat (SEPTTR) disease control on wheat seedlings; type: in vivo; set-up: key to SEPTTR 1DP, HV activity at 100 ppm (% control rating) / SEPTTR 3DC, HV activity at 100 ppm (% control rating) / SEPTTR disease control, 1DP / SEPTTR disease control, 3DC / SEPTTR 1DP disease control rating, HV activity / SEPTTR 3DC disease control rating, HV activity / SEPTTR 3DC, LV activity at 125.1 g/H (% Control rating) / SEPTTR 1DP, LV activity at 125.1 g/H (% Control rating) / SEPTTR 1DP disease control rating, LV activity at 125.1 g/H / SEPTTR 3DC disease control rating, LV activity at 125.1 g/H / SEPTTR 3DC disease control rating, HV activity at 100 ppm / SEPTTR 1DP disease control rating, HV activity at 100 ppm / HV activity at 100 ppm SEPTTR 3DC (disease control rating) / HV activity at 100 ppm SEPTTR 1DP (disease control rating) / LV activity at 125.1 g/H SEPTTR 1DP (disease control rating) / LV activity at 125.1 g/H SEPTTR 3DC (disease control rating): A: > 80; B: ≤ 80; C: Not Tested; D: No Activity Observed in the Reported Assay; details: for SEPTTR 1DP disease control rating, HV activity / SEPTTR 3DC disease control rating, HV activity: HV application at 100 ppm, wheat leaf blotch; for SEPTTR 1DP disease control rating, LV activity at 125.1 g/H / SEPTTR 3DC disease control rating, LV activity at 125.1 g/H / SEPTTR 1DP, LV activity at 125.1 g/H (% Control rating) / SEPTTR 3DC, LV activity at 125.1 g/H (% Control rating): low volume application; for SEPTTR 1DP disease control rating, LV activity at 125.1 g/H: 1 day protectant; for SEPTTR 3DC disease control rating, LV activity at 125.1 g/H: 3 day curative
Puccinia triticina = experiment: Wheat brown rust (PUCCRT) disease control on wheat seedlings; type: in vivo; details: for PUCCRT 1DP disease control rating, HV activity / PUCCRT 3DC disease control rating, HV activity: HV application at 100 ppm, wheat brown rust; for PUCCRT 1DP disease control rating, LV activity at 125.1 g/H / PUCCRT 3DC disease control rating, LV activity at 125.1 g/H / PUCCRT 1DP, LV activity at 125.1 g/H (% Control rating) / PUCCRT 3DC, LV activity at 125.1 g/H (% Control rating): low volume application; for PUCCRT 1DP disease control rating, LV activity at 125.1 g/H: 1 day protectant; for PUCCRT 3DC disease control rating, LV activity at 125.1 g/H: 3 day curative
[1] = HV application, 100 ppm, 1 Day Protectant
[2] = HV application, 100 ppm, 3 Day Curative

SMILES | SEPTTR 1DP disease control rating, LV activity at 125.1 g/H (Zymoseptoria tritici) | SEPTTR 3DC disease control rating, LV activity at 125.1 g/H (Zymoseptoria tritici) | PUCCRT 1DP disease control rating, LV activity at 125.1 g/H (Puccinia triticina) | PUCCRT 3DC disease control rating, LV activity at 125.1 g/H (Puccinia triticina) | SEPTTR 1DP, LV activity at 125.1 g/H (% Control rating) (Zymoseptoria tritici; 1 Day Protectant) | SEPTTR 3DC, LV activity at 125.1 g/H (% Control rating) (Zymoseptoria tritici; 3 Day Curative) | PUCCRT 1DP, LV activity at 125.1 g/H (% Control rating) (Puccinia triticina; 1 Day Protectant) | PUCCRT 3DC, LV activity at 125.1 g/H (% Control rating) (Puccinia triticina; 3 Day Curative) | other results
CCOc1ccnc(C(=O)N[C@@H](C)C(=O)O[C@@H](C)[C@H](Oc2ccccc2)C(C)C)c1O [Cmpd 418] |  |  |  |  |  |  |  |  | SEPTTR 1DP disease control rating, HV activity (Zymoseptoria tritici; 1 Day Protectant): B (≤ 80); SEPTTR 3DC disease control rating, HV activity (Zymoseptoria tritici; 3 Day Curative): D; PUCCRT 1DP disease control rating, HV activity (Puccinia triticina; 1 Day Protectant): B (≤ 80); PUCCRT 3DC disease control rating, HV activity (Puccinia triticina; 3 Day Curative): A (> 80)
COc1ccnc(C(=O)N[C@@H](C)C(=O)O[C@@H](C)[C@@H](Oc2cccc(C(F)(F)F)c2)C(C)C)c1OCOC(C)=O [Cmpd 853] | B (≤ 80) | A (> 80) | A (> 80) | A (> 80) |  |  |  |  | 
COc1ccnc(C(=O)NCC(=O)OC(C)C(Oc2ccccc2)C(C)C)c1OCOC(C)=O (stereo not shown) [Cmpd 862] | D | D | A (> 80) | A (> 80) |  |  |  |  | 
CCC(CC)[C@@H](Oc1ccc(F)cc1)[C@H](C)OC(=O)[C@@H](NC(=O)c1nccc(OC)c1OCOC(C)=O)C(C)C [Cmpd 646] |  |  |  |  | B (≤ 80) | B (≤ 80) | A (> 80) | A (> 80) | SEPTTR 1DP, HV activity at 100 ppm (% control rating) (Zymoseptoria tritici; [1]): A (> 80); SEPTTR 3DC, HV activity at 100 ppm (% control rating) (Zymoseptoria tritici; [2]): A (> 80); PUCCRT 1DP, HV activity at 100 ppm (% control rating) (Puccinia triticina; [1]): A (> 80); PUCCRT 3DC, HV activity at 100 ppm (% control rating) (Puccinia triticina; [2]): A (> 80)
COc1ccnc(C(=O)NC(C)C(=O)OC(C)C(Oc2ccccc2)c2cccs2)c1OC(C)=O (stereo not shown) [Cmpd 690] | B (≤ 80) | B (≤ 80) | B (≤ 80) | B (≤ 80) |  |  |  |  | 
CCC(CCOC)C(Oc1ccccc1)C(C)OC(=O)C(C)NC(=O)c1nccc(OC)c1OC(C)=O (stereo not shown) [Cmpd 481] |  |  |  |  | B (≤ 80) | A (> 80) | A (> 80) | A (> 80) | 
COc1ccnc(C(=O)N[C@H](C(=O)O[C@@H](C)[C@H](Oc2ccc3ccccc3c2)C(C)C)C(C)C)c1OCOC(C)=O [Cmpd 633] |  |  |  |  | B (≤ 80) | A (> 80) | A (> 80) | A (> 80) | 
CCC(CC)[C@H](Oc1cc(F)ccc1F)[C@H](C)OC(=O)[C@H](C)NC(=O)c1nccc(OC)c1OCOC(C)=O [Cmpd 671] | D | B (≤ 80) | A (> 80) | A (> 80) |  |  |  |  | 
CCC(Cc1ccccc1)C(OCC(C)C)C(C)OC(=O)C(C)NC(=O)c1nccc(OC)c1OCOC(C)=O (stereo not shown) [Cmpd 454] |  |  |  |  |  |  |  |  | SEPTTR 1DP disease control rating, HV activity (Zymoseptoria tritici; 1 Day Protectant): A (> 80); SEPTTR 3DC disease control rating, HV activity (Zymoseptoria tritici; 3 Day Curative): A (> 80); PUCCRT 1DP disease control rating, HV activity (Puccinia triticina; 1 Day Protectant): A (> 80); PUCCRT 3DC disease control rating, HV activity (Puccinia triticina; 3 Day Curative): A (> 80)
